Results taken from publication PMC9896555, “Cyclic Acetals as Novel Long-Lasting Mosquito Repellents” (Journal of Agricultural and Food Chemistry, 2023).
Where “and” joins values, the source holds several entries; their conditions need not be identical. Identical values can stand only once. Entries after “also recorded” stand apart in the source; their conditions may differ. Like-named read-outs stand apart in the source and are kept apart here.

Experiments:
Aedes albopictus [1] = test: Effective dose / protection efficacy, human-bait technique; type: in vivo
Procedure: The repellence of DEET, Icaridin (both supplied by Istituto Biochimico VEBI s.r.l.), acetals, and the synthesized hydroxyacetals was evaluated againstAedes albopictususing the human-bait technique (to simulate the condition of human skin on which repellents will be applied).[22]A. albopictuswas reared and tested at 26 ± 2 °C, ≥60 ± 10% relative humidity (RH), and at 14:10 h light/dark photoperiod, within Plexiglas cylindrical laboratory cages (35 cm diameter, 60 cm length) with one end closed by a net. During the tests, cages contained ≈150 nulliparous, 4–7 day-old, nonblood-fed females. For each compound to be tested, up to six volunteers participated in the trial.
The study was approved by the Regional Ethics Committee for Clinical Trials of Tuscany Region with the registered number 20383. Volunteers agreed to take part in the experiments following informed consent; only volunteers non-allergic to mosquito bites participated in the trials. On the day of the bioassay, they had no contact with lotions, perfumes, oils, or perfumed soaps. They wore latex surgical gloves, in which a dorsal square area of 30 cm^2 was cut open. Mosquito-exposed skin was treated with 50 μL of ethanol, as the negative hand control. The other hand was treated with 50 μL of the tested compounds in ethanol solution (dosages corresponding to 0.081, 0.17, 0.33, 0.5, 0.83, 1.7, 8.3, 16.7, and 83.3 μg/cm^2). Both hands were presented in the same test cage. The number of probing mosquitoes in a 3 min exposure period was recorded. During each test, the control and the treated hand were presented interchanged to verify the mosquitoes’ readiness to bite. Trials were considered valid only if at least 30 mosquitoes performed probing behavior on the control hand before each repellent dosage was tested. The protection efficacy (PE %) obtained from all replicates was calculated, according to the WHO guidelines[31] using this formula [drawing 1]
To evaluate the protection efficacy, volunteers applied increasing doses of the compounds to the skin on the back of their hands (30 cm^2, while the rest was covered with a rubber glove) and counted the number of mosquitoes attempting to bite; the solvent only was used on the control hand. The protection (percentage of repelled mosquitoes) was calculated as reported in the Material and Methods section.

Aedes albopictus [2] = test: Protection time at 0.17 mg/cm2, human-bait technique; type: in vivo; conditions: for pest or weed control at 0.17 mg/cm2, 0.17 mg/cm2: Aedes albopictus, topical, read-out: Protection time PE%
Procedure, shortened: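 Human-bait test with 100 μL of 5% ethanol solution applied to skin (0.17 mg/cm2); ethanol-treated hand as negative control. Repellency checked hourly up to 8 h on up to 8 volunteers; protection time taken as mean time with >95% protection, complete protection time estimated by Kaplan–Meier.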

HaCaT cells = test: Cytotoxicity on human keratinocytes (MTS); type: cell-based; conditions: 82 μg/mL, 24 h
Procedure: HaCaT cells were cultured in 5% CO2 at 37 °C in Dulbecco’s modified Eagle’s medium (DMEM), supplemented with 10% fetal bovine serum (FBS), 1% L-glutamine ([…]), and 1% penicillin–streptomycin (Thermo Fisher Scientific, Rodano, Milan, Italy). […] Experiments were performed in triplicate.

Caco-2 monolayer = test: Transwell permeation test; type: in vitro ADME; conditions: 82 μg/mL apical, 3 h
Procedure: To evaluate the possibility of absorption after topical application, we tested the permeation through a Caco-2 monolayer for those compounds best performing in terms of protection time and cytotoxicity. The colorectal adenocarcinoma cell line Caco-2 was purchased from ATCC and cultured in DMEM with 20% FBS, L-glutamine (2 mM), and 1% penicillin–streptomycin 100 U/mL (Thermo Fisher Scientific, Rodano, Milan, Italy) in 5% CO2 at 37 °C.
For the permeation studies, Caco-2 cells, a model of epithelial cells, were seeded into 12-well PET Transwell plates (1.13 cm^2 growth surface area and pore size 0.4 μm, Greiner Bio-One, Milan, Italy) at a density of 2 × 10^5 cells/cm^2 and grown for 21 days to form a confluent monolayer. The integrity of the cellular barrier was then assessed using Lucifer Yellow (LY) permeability test, before the experiments.[33]
After washing, the monolayers were preincubated for 20 min at 37 °C with 0.5 and 1.5 mL of the incubation medium, HBSS/HEPES 25 mM in the apical and basolateral sides, respectively. […] At the end of the experiment, the layer integrity was re-evaluated. […]
One hundred microliters of the collected media was extracted in 100 μL of heptane by vortexing the vial for 2 min; 70 μL of this solution was recovered; and 1 μL was injected in a 7820 GC system-5977B MSD system and analyzed under the same conditions reported in paragraph 2.2. […]

RAW 264.7 = test: Immunogenicity on murine macrophages (nitric oxide release); type: cell-based; conditions: RAW264.7, 82 μg/mL, 6 h
Procedure: Cells were cultured in DMEM, with 10% FBS, 1% L-glutamine (2 mM), and 1% penicillin–streptomycin 100 U/mL at 37 °C in an atmosphere containing 5% CO2. RAW264.7 were seeded (1 × 10^5 cells/well) and exposed to five derivatives or Icaridin, at 82 μg/mL or to LPS (1 μg/mL) as a positive control, for 3 and 6 h. After that, nitric oxide release was determined in the culture media as previously described.[32] Experiments were performed in triplicate.

In the case of OCC1COC2(CCCCCCC2)O1 (stereo not shown) [12a], the pest or weed control at 0.081 µg/cm2, 0.081 µg/cm2 (Aedes albopictus [1]; Aedes albopictus, topical, 0.081 µg/cm2, read-out: Protection efficacy PE%) is reported as 46.3%, the pest or weed control at 0.17 µg/cm2, 0.17 µg/cm2 (Aedes albopictus [1]; Aedes albopictus, topical, 0.17 µg/cm2, read-out: Protection efficacy PE%) is reported as 58.9% and the pest or weed control at 0.33 µg/cm2, 0.33 µg/cm2 (Aedes albopictus [1]; Aedes albopictus, topical, 0.33 µg/cm2, read-out: Protection efficacy PE%) is reported as 62.2%. The pest or weed control at 0.5 µg/cm2, 0.5 µg/cm2 (Aedes albopictus [1]; Aedes albopictus, topical, 0.5 µg/cm2, read-out: Protection efficacy PE%) was 87%, the pest or weed control at 0.83 µg/cm2, 0.83 µg/cm2 (Aedes albopictus [1]; Aedes albopictus, topical, 0.83 µg/cm2, read-out: Protection efficacy PE%) was 90.7% and the pest or weed control at 1.7 µg/cm2, 1.7 µg/cm2 (Aedes albopictus [1]; Aedes albopictus, topical, 1.7 µg/cm2, read-out: Protection efficacy PE%) was 100%. For the same molecule, the pest or weed control at 8.3 µg/cm2, 8.3 µg/cm2 (Aedes albopictus [1]; Aedes albopictus, topical, 8.3 µg/cm2, read-out: Protection efficacy PE%) was 100%, the pest or weed control at 16.7 µg/cm2, 16.7 µg/cm2 (Aedes albopictus [1]; Aedes albopictus, topical, 16.7 µg/cm2, read-out: Protection efficacy PE%) was 100% and the pest or weed control at 83.3 µg/cm2, 83.3 µg/cm2 (Aedes albopictus [1]; Aedes albopictus, topical, 83.3 µg/cm2, read-out: Protection efficacy PE%) was 100%. The “100% PE” value (Aedes albopictus [1]; Table S1) was 1.7 µg/cm2, the “Protection efficacy (dose to obtain complete protection (100%) from bite attempts)” value (Aedes albopictus [1]; applied on skin of volunteers, 3 min exposure) was 1.7 μg/cm^2 and the pest or weed control at 0.17 mg/cm2, 0.17 mg/cm2 (Aedes albopictus [2]; 0.17mg/cm2, 1 h) was 100%. The pest or weed control at 0.17 mg/cm2, 0.17 mg/cm2 (Aedes albopictus [2]; 0.17mg/cm2, 2 h) was 100%, the pest or weed control at 0.17 mg/cm2, 0.17 mg/cm2 (Aedes albopictus [2]; 0.17mg/cm2, 3 h) was 100% and the pest or weed control at 0.17 mg/cm2, 0.17 mg/cm2 (Aedes albopictus [2]; 0.17mg/cm2, 4 h) was 100%. For the same molecule, the pest or weed control at 0.17 mg/cm2, 0.17 mg/cm2 (Aedes albopictus [2]; 0.17mg/cm2, 5 h) was 100%, the pest or weed control at 0.17 mg/cm2, 0.17 mg/cm2 (Aedes albopictus [2]; 0.17mg/cm2, 6 h) was 97.1% and the pest or weed control at 0.17 mg/cm2, 0.17 mg/cm2 (Aedes albopictus [2]; 0.17mg/cm2, 7 h) was 96.9%. The pest or weed control at 0.17 mg/cm2, 0.17 mg/cm2 (Aedes albopictus [2]; 0.17mg/cm2, 8 h) was 100%, the “Average PT >95% (% coefficient of variation)” value (Aedes albopictus [2]; at the dose of 0.17mg/cm2) was 480 (0) min and the “Estimated 100% PT (complete protection time, mean±SE)” value (Aedes albopictus [2]; at the dose of 0.17mg/cm2, Kaplan–Meier estimate) was 380 ± 20 min. The “Protection time (95% protection)” value (Aedes albopictus [2]; dose of 0.17 mg/cm^2, tests ended after 8 h) was 8 h, the survival of keratocytes (HaCaT cells) was > 88% and 100% and the “permeability value lower compared to Icaridin” value (Caco-2 monolayer) was 44%. The “immunogenicity (nitric oxide release / nitrite production), in words” value (RAW 264.7) was “did not exhibit immunogenicity; also recorded: indistinguishable from the negative control”.
